Laboratory results: patent US20090142429A1, “SILICIBACTER SP. STRAIN USEFUL FOR GENETIC TRANSFORMATION OF MARINE ALGAE AND PRODUCTION OF ANTIBIOTIC AGENTS” (UNIVERSITY OF MARYLAND BIOTECHNOLOGY INSTITUTE, priority 2005, published 2009)

System: Silicibacter sp. strain TM1040
Test: Chemotaxis plate screening assay (change in motile colony morphology); for Change in morphology with carbon source Alanine: key: −: minus indicates no change compared to distilled water or no attractant controls; +: either one or two pluses indicates moderate to strong alteration in motile colony phenotype (respectively); ++: either one or two pluses indicates moderate to strong alteration in motile colony phenotype (respectively); for Change in morphology with carbon source Glucose: key: −: minus indicates no change compared to distilled water or no attractant controls; +: either one or two pluses indicates moderate to strong alteration in motile colony phenotype (respectively); ++: either one or two pluses indicates moderate to strong alteration in motile colony phenotype (respectively); for Change in morphology with carbon source Glycerol: key: −: minus indicates no change compared to distilled water or no attractant controls; +: either one or two pluses indicates moderate to strong alteration in motile colony phenotype (respectively); ++: either one or two pluses indicates moderate to strong alteration in motile colony phenotype (respectively); for Response: change in motile colony morphology of TM1040 in response to attractants, compared to the control: key: −: minus indicates no change compared to distilled water or no attractant controls; +: either one or two pluses indicates moderate to strong alteration in motile colony phenotype (respectively); ++: either one or two pluses indicates moderate to strong alteration in motile colony phenotype (respectively)
Type: cell-based
Conditions: for Response: change in motile colony morphology of TM1040 in response to attractants, compared to the control / chemotactic response of TM1040 in plate assay: BM glycerol motility agar; for Change in morphology with carbon source Alanine / Change in morphology with carbon source Glucose / Change in morphology with carbon source Glycerol / Change in morphology with carbon source Succinate: BM motility agar; for Change in morphology with carbon source Alanine: alanine as single carbon source; for Change in morphology with carbon source Glucose: glucose as single carbon source; for Change in morphology with carbon source Glycerol: glycerol as single carbon source; for Change in morphology with carbon source Succinate: succinate as single carbon source
Experimental: Following 36 h of incubation, a putative attractant was placed approximately 5 cm from the site of inoculation (or 2.5 cm in front of the periphery of motile cells). Possible chemoattractant compounds were administered as either a sterile solid or concentrated stock solutions. The cells were further incubated for 16 h to allow for additional outward movement, at which time measurement of diameter, shape, and chemotaxis rings internal to the motile colony were made.
[…] Bacteria inoculated into the center of the agar consume nutrients and create a concentration gradient that increases outward from the point of inoculation. The bacteria sense the increasing gradient and swim outwards, seeking higher concentrations of nutrients, which is manifested as a symmetrical “motile” colony. If an attractant is placed at a short distance in front of the advancing motile colony, it forms a second gradient moving towards the oncoming cells that will affect the symmetry of the colony by reducing the net outward swimming of the bacteria.

SMILES	Response: change in motile colony morphology of TM1040 in response to attractants, compared to the control	Change in morphology with carbon source Alanine	Change in morphology with carbon source Glucose	Change in morphology with carbon source Glycerol	Change in morphology with carbon source Succinate	chemotactic response of TM1040 in plate assay
N[C@@H](CS)C(=O)O [cysteine]	+					
OCC(O)CO [glycerol]	+					
N[C@@H](Cc1c[nH]cn1)C(=O)O [histidine]	+					
C[C@@H](O)[C@H](N)C(=O)O [threonine]	++					
N[C@@H](CCC(=O)O)C(=O)O [glutamic acid]	++	−	−	++	+	
N[C@@H](Cc1ccc(O)cc1)C(=O)O [tyrosine]	+					
O=C[C@H](O)[C@@H](O)[C@@H](O)[C@H](O)CO [Galactose]	++	−	−	++	+	responded positively
CC(=O)N[C@H]1C(O)O[C@H](CO)[C@@H](O)[C@@H]1O (some centres unmarked) [N-acetylglucosamine]	++	+	−	++	+	responded positively
O=C(CO)[C@@H](O)[C@H](O)[C@H](O)CO [fructose]	−					no detectable change in the appearance of the motile colony
O=C[C@@H](O)[C@H](O)[C@H](O)CO [arabinose]	−					no detectable change in the appearance of the motile colony
N[C@@H](CC(=O)O)C(=O)O [aspartic acid]	++					
O=C(O)[C@@H]1CCCN1 [proline]	++					
C[C@H](N)C(=O)O [Alanine]	++	−	−	++	+	
OC[C@H]1O[C@H](O[C@H]2[C@H](O)[C@@H](O)[C@H](O)O[C@@H]2CO)[C@H](O)[C@@H](O)[C@@H]1O [maltose]	+	++	−	+	++	responded positively
N[C@@H](CO)C(=O)O [serine]	+					
CC[C@H](C)[C@H](N)C(=O)O [isoleucine]	+					
C[C@H](O)[C@@H](O)[C@@H](O)[C@H](O)C=O [fucose]	−					
OC[C@H]1O[C@@H](O[C@H]2[C@H](O)[C@@H](O)C(O)O[C@@H]2CO)[C@H](O)[C@@H](O)[C@H]1O (some centres unmarked) [Lactose]	−	−	−	−	−	
N[C@@H](Cc1ccccc1)C(=O)O [phenylalanine]	++					
O=C(O)/C=C/C(=O)O [fumurate]	++					strong positive response
